In patent US11591323B2, “Muscarinic agonists as non-steroidal and non-opioid analgesics and methods of use thereof” (Barry University, priority 2019, dated 2023):
Like-named read-outs stand apart in the source and are kept apart here.

Columns and labels:
Parameters in all cases: host or cells: CHO cells, stably transfected
[1] = target: T1, M3 muscarinic receptor (Homo sapiens, UniProt P20309); test: [3H]NMS competition binding, M3 CHO membranes; conditions: competition with 1 nM [3H]NMS; read-out: Inhibition constants (Ki) as negative logarithms, M3 (converted)
T1 sequence (P20309 whole entry): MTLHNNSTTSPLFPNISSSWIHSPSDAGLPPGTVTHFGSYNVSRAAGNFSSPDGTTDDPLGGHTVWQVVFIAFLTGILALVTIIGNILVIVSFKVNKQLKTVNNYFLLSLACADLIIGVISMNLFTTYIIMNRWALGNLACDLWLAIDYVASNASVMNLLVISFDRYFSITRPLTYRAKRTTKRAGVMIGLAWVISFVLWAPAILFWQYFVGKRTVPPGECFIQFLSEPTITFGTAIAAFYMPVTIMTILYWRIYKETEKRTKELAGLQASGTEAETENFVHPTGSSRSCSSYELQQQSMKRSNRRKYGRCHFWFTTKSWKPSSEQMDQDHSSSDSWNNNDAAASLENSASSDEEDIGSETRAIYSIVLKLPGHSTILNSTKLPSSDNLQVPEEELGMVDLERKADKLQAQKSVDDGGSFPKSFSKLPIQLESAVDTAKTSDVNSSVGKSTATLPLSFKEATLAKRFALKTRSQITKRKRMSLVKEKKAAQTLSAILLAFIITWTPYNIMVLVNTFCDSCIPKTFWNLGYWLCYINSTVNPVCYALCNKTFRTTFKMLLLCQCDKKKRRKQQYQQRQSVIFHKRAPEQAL

[2] = target: T1, M3 muscarinic receptor; test: accumulation of IPX, M3 CHO cells (M3Gq); assay type: cell-based; conditions: for E′MAX / τ / Kd / EC50: M3 (↑IPX), preferential response, Table 7; for τ: operational efficacy; for Kd: operational model, read-out: pKA (converted); for EC50: read-out: pEC50 (converted)
[3] = target: T2, M2 muscarinic receptor (Homo sapiens, UniProt P08172); test: inhibition of forskolin-stimulated cAMP, M2 CHO cells (M2Gi); assay type: cell-based; conditions: for Emax: CHO; for τ: operational efficacy; for RAi: relative to carbachol; for RAi / Δlog(τ/KA): Tables 2, 3, 7; for Δlog(τ/KA): to carbachol
T2 sequence (P08172 1-466): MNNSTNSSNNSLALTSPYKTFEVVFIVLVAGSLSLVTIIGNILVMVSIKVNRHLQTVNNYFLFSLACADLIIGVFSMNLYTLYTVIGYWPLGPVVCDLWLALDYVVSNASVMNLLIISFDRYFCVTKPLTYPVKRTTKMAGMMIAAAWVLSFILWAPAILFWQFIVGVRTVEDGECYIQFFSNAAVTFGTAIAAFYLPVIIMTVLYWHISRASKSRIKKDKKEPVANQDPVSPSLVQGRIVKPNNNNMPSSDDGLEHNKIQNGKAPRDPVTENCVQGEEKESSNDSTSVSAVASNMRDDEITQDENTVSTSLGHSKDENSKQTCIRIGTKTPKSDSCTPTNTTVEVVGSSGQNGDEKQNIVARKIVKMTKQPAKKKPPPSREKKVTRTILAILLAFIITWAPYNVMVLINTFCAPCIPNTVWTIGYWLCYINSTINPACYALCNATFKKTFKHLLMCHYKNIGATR

[4] = target: T3, M4 muscarinic receptor (Homo sapiens, UniProt P08173); test: inhibition of forskolin-stimulated cAMP, M4 CHO cells (M4Gi); assay type: cell-based; conditions: for Emax: CHO; for τ: operational efficacy; for RAi: relative to carbachol; for RAi / Δlog(τ/KA): Tables 2, 3, 7; for Δlog(τ/KA): to carbachol
T3 sequence (P08173 1-479): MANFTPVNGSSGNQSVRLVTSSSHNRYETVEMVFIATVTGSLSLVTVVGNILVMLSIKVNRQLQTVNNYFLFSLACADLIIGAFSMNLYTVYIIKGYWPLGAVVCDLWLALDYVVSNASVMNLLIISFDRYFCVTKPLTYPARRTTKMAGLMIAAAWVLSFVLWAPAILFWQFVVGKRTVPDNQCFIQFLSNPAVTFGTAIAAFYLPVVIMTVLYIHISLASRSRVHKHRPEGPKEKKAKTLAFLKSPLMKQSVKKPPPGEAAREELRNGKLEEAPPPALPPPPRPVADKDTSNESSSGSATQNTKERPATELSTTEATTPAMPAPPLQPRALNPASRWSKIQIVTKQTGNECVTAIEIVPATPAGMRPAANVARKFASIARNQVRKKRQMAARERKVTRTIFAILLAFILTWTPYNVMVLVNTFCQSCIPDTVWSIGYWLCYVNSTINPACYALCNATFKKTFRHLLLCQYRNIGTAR

[5] = target: T4, M1 muscarinic receptor (Homo sapiens, UniProt P11229); test: accumulation of inositol phosphates IPX, M1 CHO cells (M1Gq); assay type: cell-based; conditions: for E′MAX / τ / Kd / EC50: M1 (↑IPX), preferential response, Table 7; for τ: operational efficacy; for Kd: operational model, read-out: pKA (converted); for EC50: read-out: pEC50 (converted)
T4 sequence (P11229 1-460): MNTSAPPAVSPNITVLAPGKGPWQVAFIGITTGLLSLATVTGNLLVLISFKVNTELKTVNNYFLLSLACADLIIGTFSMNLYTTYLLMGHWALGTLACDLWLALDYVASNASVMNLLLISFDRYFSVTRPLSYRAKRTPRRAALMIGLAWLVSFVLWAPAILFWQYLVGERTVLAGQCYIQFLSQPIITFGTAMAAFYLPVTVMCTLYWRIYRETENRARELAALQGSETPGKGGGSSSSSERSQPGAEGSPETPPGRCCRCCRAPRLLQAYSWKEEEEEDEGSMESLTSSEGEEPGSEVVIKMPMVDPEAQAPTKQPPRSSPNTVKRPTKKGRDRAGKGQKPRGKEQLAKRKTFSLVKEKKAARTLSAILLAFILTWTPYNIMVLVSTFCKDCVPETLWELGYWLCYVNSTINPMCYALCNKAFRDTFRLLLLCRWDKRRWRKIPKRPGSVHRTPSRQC

[6] = target: T5, M5 muscarinic receptor (Homo sapiens, UniProt P08912); test: accumulation of IPX, M5 CHO cells (M5Gq); assay type: cell-based; conditions: for RAi: relative to carbachol
T5 sequence (P08912 1-532): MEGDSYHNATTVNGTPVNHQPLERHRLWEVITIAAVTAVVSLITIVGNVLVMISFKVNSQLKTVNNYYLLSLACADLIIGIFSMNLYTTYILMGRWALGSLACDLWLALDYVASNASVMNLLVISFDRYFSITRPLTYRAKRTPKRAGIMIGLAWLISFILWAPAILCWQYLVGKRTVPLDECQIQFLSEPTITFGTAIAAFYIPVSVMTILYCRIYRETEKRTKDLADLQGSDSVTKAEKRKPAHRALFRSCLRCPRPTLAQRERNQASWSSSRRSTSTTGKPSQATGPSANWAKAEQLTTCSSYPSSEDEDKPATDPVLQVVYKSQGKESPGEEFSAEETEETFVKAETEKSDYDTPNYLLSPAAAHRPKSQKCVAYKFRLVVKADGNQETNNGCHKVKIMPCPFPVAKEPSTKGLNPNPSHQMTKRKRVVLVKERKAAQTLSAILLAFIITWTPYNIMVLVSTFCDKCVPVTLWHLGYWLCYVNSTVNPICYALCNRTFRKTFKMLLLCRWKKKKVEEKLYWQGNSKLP

[7] = M2 (↓cAMP), preferential response, Table 7
[8] = M2 (↓cAMP), preferential response
[9] = M4 (↓cAMP), preferential response, Table 7
[10] = M4 (↓cAMP), preferential response
[11] = M5 (↑IPX), preferential response, Table 7
[12] = M5 (↑IPX), preferential response, Tables 2, 3, 7

Compound | Ki [1] [µM] | RAi [2] | Δlog(τ/KA) [2] | E′MAX [2] [fold over basal] | τ [2] | Kd [2] [µM] | EC50 [2] [µM] | Emax [3] [%] | τ [3, 7] | RAi [3, 8] | Δlog(τ/KA) [3, 8] | Emax [4] [%] | τ [4, 9] | RAi [4, 10] | Δlog(τ/KA) [4, 10] | RAi [5] | Δlog(τ/KA) [5] | E′MAX [5] [fold over basal] | τ [5] | Kd [5] [µM] | other results
C[N+]1(Cc2ccc(Br)s2)CC=CCC1.[I-] (centres unmarked) [Compound 7C, 1-[(5-bromothiophen-2-yl)methyl]-1-methyl-1,2,3,6-tetrahydropyridin-1-ium iodide] | 2.04 | 0.0042 ± 0.0005 | 2.38 ± 0.66 | 1.6 ± 0.1 | 0.02 ± 0.01 | 2.51 | 2.51 | 38 ± 2 | 0.76 ± 0.08 | 0.018 ± 0.002 | 1.69 ± 0.09 | 11 ± 1 | 0.14 ± 0.01 | 0.0030 ± 0.0003 | 2.26 ± 0.16 | 0.0024 ± 0.0004 | 2.62 ± 0.18 | 1.8 ± 0.2 | 0.02 ± 0.01 | 2.51 | Kd ([3]; M2 (↓cAMP), preferential response, Table 7, operational model, read-out: pKA (converted)): 3.16 µM; EC50 ([3]; M2 (↓cAMP), preferential response, Table 7, read-out: pEC50 (converted)): 1.62 µM; Kd ([4]; M4 (↓cAMP), preferential response, Table 7, operational model, read-out: pKA (converted)): 2.51 µM; EC50 ([4]; M4 (↓cAMP), preferential response, Table 7, read-out: pEC50 (converted)): 2.4 µM; EC50 [5]: 2.51 µM; E′MAX [6, 11]: 1.19 ± 0.04 fold over basal; EC50 ([6]; M5 (↑IPX), preferential response, Table 7, read-out: pEC50 (converted)): 3.16 µM; RAi [6, 12]: 0.0013 ± 0.0005
C[N+]1(Cc2ccc(Cl)s2)CC=CCC1.[I-] (centres unmarked) [Compound 7D, 1-[(5-chlorothiophen-2-yl)methyl]-1-methyl-1,2,3,6-tetrahydropyridin-1-ium iodide] | 3.39 | 0.0050 ± 0.0006 | 2.30 ± 0.45 | 1.8 ± 0.1 | 0.03 ± 0.01 | 3.98 | 3.16 | 40 ± 2 | 0.83 ± 0.08 | 0.008 ± 0.001 | 2.05 ± 0.19 | 28 ± 1 | 0.46 ± 0.05 | 0.0048 ± 0.0005 | 2.14 ± 0.19 | 0.0165 ± 0.0003 | 1.78 ± 0.21 | 7.9 ± 0.8 | 0.26 ± 0.03 | 3.98 | EC50 [3]: 3.89 µM; Kd [3]: 6.31 µM; EC50 [4]: 4.68 µM; Kd [4]: 6.31 µM; EC50 [5]: 3.39 µM; Kd [6]: 12.6 µM; E′MAX [6, 11]: 3.5 ± 0.2 fold over basal; τ ([6]; M5 (↑IPX), preferential response, Table 7, operational efficacy): 0.14 ± 0.01; RAi [6, 12]: 0.0049 ± 0.0006; Δlog(τ/KA) ([6]; M5 (↑IPX), preferential response, to carbachol, Tables 2, 3, 7): 2.31 ± 0.50; EC50 ([6]; pEC50, M5 (↑IPX), preferential response, Table 7): 9.77 µM
